Experimental data taken from ChEMBL document CHEMBL5154779, “Exploration of novel phthalazinone derivatives as potential efflux transporter inhibitors for reversing multidrug resistance and improving the oral absorption of paclitaxel” (Eur J Med Chem, 2022).
Structures can show the parent of a compound that is named as a salt. Values belong to the compound of their own block, whether it stands above or below them. The source made the active and inactive calls. No cut-off for these calls is given here.

Tests used:
K562 = assay: Cytotoxicity against human K562 cells after 48 hrs by MTT assay; assay type: functional, cell-based; conditions: K562, 48 h
A549 = assay: Antiproliferative activity against human A549 cells highly expressing EGFR after 48 hrs by MTT assay; assay type: functional, cell-based; conditions: A549, 48 h
MDCK = assay: Cytotoxicity against dog MDCK cells after 48 hrs by MTT assay; assay type: functional, cell-based; conditions: Canis lupus familiaris
[1] = Cytotoxicity against dog MDCK-II-BCRP cells after 48 hrs by MTT assay; assay type: functional, cell-based; conditions: Canis lupus familiaris
K562/A02 = assay: Cytotoxicity against human K562/A02 cells after 48 hrs by MTT assay; assay type: functional, cell-based; conditions: K562/A02, 48 h
[2] = biological target: T1, ATP-dependent translocase ABCB1 (Homo sapiens, UniProt P08183); assay: Inhibition of P-gp (unknown origin)
[3] = biological target: T2, Broad substrate specificity ATP-binding cassette transporter ABCG2 (Homo sapiens, UniProt Q9UNQ0); assay: Inhibition of BCRP (unknown origin)
T2 sequence (Q9UNQ0 whole entry): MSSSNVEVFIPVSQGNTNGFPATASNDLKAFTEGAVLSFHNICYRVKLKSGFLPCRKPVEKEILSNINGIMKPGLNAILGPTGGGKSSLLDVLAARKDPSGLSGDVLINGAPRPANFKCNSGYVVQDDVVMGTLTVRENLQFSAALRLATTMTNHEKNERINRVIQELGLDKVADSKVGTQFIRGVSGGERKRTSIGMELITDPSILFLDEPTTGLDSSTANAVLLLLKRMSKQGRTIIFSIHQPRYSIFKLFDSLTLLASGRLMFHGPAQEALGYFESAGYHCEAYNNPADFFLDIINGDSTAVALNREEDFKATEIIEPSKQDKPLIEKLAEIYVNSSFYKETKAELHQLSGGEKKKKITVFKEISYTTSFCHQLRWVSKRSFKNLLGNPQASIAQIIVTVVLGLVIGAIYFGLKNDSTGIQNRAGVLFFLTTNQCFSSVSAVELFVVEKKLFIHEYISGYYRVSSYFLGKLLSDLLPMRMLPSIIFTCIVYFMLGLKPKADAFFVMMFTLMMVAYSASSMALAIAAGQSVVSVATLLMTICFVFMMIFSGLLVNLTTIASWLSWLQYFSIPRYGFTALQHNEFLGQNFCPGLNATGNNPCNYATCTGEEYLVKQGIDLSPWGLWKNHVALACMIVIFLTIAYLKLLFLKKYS

[4] = biological target: T1, ATP-dependent translocase ABCB1; assay: Inhibition of P-gp in human K562/A02 cells assessed as rescue of intracellular Rhodamine 123 accumulation at 5 uM incubated for 5 to 120 mins and measured by flow cytometry analysis; assay type: cell-based; conditions: k562/a02, 5 µM, time 5-120 min
[5] = Apparent permeability of compound in human Caco-2 cells from basal to apical after 180 mins by LC-MS/MS analysis; assay type: ADME, cell-based
[6] = Apparent oral volume of distribution in male Sprague-Dawley rat at 20 mg/kg,po pretreated with 3-4-chloropheny1-N-4-2-morpholinoethylpheny1-4-oxo-3,4-dihydrophthalazine-1-carboxamide at 10 mg/kg measured by LC/MS analysis; assay type: ADME, organism-based; conditions: in vivo
[7] = Tmax in male Sprague-Dawley rat at 20 mg/kg,po pretreated with 3-4-chloropheny1-N-4-2-morpholinoethylpheny1-4-oxo-3,4-dihydrophthalazine-1-carboxamide at 10 mg/kg measured by LC/MS analysis; assay type: ADME, organism-based; conditions: in vivo
Caco-2 [8] = assay: Cytotoxicity against human Caco-2 cells assessed as reduction in cell viability at 30 uM after 48 hrs by MTT assay; assay type: toxicity, cell-based; conditions: caco-2, 48 h
[9] = Cmax in male Sprague-Dawley rat at 20 mg/kg,po pretreated with 3-4-chloropheny1-N-4-2-morpholinoethylpheny1-4-oxo-3,4-dihydrophthalazine-1-carboxamide at 10 mg/kg measured by LC/MS analysis; assay type: ADME, organism-based; set-up: dose 20 mg/kg, route po; conditions: in vivo
[10] = Apparent permeability of compound in human Caco-2 cells from apical to basal after 30 mins by LC-MS/MS analysis; assay type: ADME, cell-based
[11] = AUC (0 to t) in male Sprague-Dawley rat at 20 mg/kg,po pretreated with 3-4-chloropheny1-N-4-2-morpholinoethylpheny1-4-oxo-3,4-dihydrophthalazine-1-carboxamide at 10 mg/kg measured by LC/MS analysis; assay type: ADME, organism-based; set-up: dose 20 mg/kg, route po; conditions: in vivo
[12] = Apparent permeability of compound in human Caco-2 cells from apical to basal after 60 mins by LC-MS/MS analysis; assay type: ADME, cell-based
[13] = Apparent permeability of compound in human Caco-2 cells from basal to apical after 120 mins by LC-MS/MS analysis; assay type: ADME, cell-based
[14] = Tmax in male Sprague-Dawley rat at 20 mg/kg,po measured by LC/MS analysis; assay type: ADME, organism-based; conditions: in vivo
[15] = Apparent permeability of compound in human Caco-2 cells from basal to apical after 90 mins by LC-MS/MS analysis; assay type: ADME, cell-based
[16] = Apparent permeability of compound in human Caco-2 cells from apical to basal after 90 mins by LC-MS/MS analysis; assay type: ADME, cell-based
[17] = Cmax in male Sprague-Dawley rat at 20 mg/kg,po measured by LC/MS analysis; assay type: ADME, organism-based; set-up: dose 20 mg/kg, route po; conditions: in vivo
in vivo = conditions: male, Sprague-Dawley, rat, po, 20 mg/kg
[18] = Apparent permeability of compound in human Caco-2 cells from basal to apical after 60 mins by LC-MS/MS analysis; assay type: ADME, cell-based
[19] = Apparent permeability of compound in human Caco-2 cells from basal to apical after 30 mins by LC-MS/MS analysis; assay type: ADME, cell-based
[20] = Apparent permeability of compound in human Caco-2 cells from apical to basal after 120 mins by LC-MS/MS analysis; assay type: ADME, cell-based
[21] = Apparent permeability of compound in human Caco-2 cells from apical to basal after 180 mins by LC-MS/MS analysis; assay type: ADME, cell-based
[22] = Bioavailability in male Sprague-Dawley rat at 5 mg/kg,iv measured by LC/MS analysis; assay type: ADME, organism-based; conditions: in vivo
[23] = Oral bioavailability in male Sprague-Dawley rat at 20 mg/kg,po pretreated with 3-4-chloropheny1-N-4-2-morpholinoethylpheny1-4-oxo-3,4-dihydrophthalazine-1-carboxamide at 10 mg/kg measured by LC/MS analysis; assay type: ADME, organism-based; conditions: in vivo
[24] = Apparent oral clearance in male Sprague-Dawley rat at 20 mg/kg,po pretreated with 3-4-chloropheny1-N-4-2-morpholinoethylpheny1-4-oxo-3,4-dihydrophthalazine-1-carboxamide at 10 mg/kg measured by LC/MS analysis; assay type: ADME, organism-based; conditions: in vivo
[25] = Reversal of BCRP-mediated multidrug resistance in dog MDCK-II-BCRP cells in presence of mitoxantrone after 48 hrs by MTT assay; assay type: cell-based; conditions: Canis lupus familiaris
Caco-2 [26] = assay: Cytotoxicity against human Caco-2 cells assessed as reduction in cell viability at 50 uM after 48 hrs by MTT assay; assay type: toxicity, cell-based; conditions: caco-2, 48 h
MDCK-II-BCRP = assay: Inhibition of BCRP-mediated multidrug resistance in dog MDCK-II-BCRP cells assessed as mitoxantrone accumulation at 0.1 to 5 uM pretreated 1.5 hrs followed by treated with mitoxantrone measured after 4 hrs by flow cytometry analysis; assay type: cell-based; conditions: Canis lupus familiaris, dose 0.1-5 µM
[27] = biological target: T1, ATP-dependent translocase ABCB1; assay: Inhibition of P-gp-mediated multidrug resistance in human K562/A02 cells assessed as adriamycin accumulation at 0.5 to 5 uM pretreated 1.5 hrs followed by treated with adriamycin measured after 4 hrs by flow cytometry analysis; assay type: cell-based; conditions: k562/a02, 1.5 h, dose 0.5-5 µM
[28] = Reversal of P-gp-mediated multidrug resistance in human K562/A02 cells assessed as potentiation of adriamycin-induced cytotoxicity at 0.04 uM by measuring adriamycin IC50 after 48 hrs by MTT assay

T1 sequence (P08183 whole entry): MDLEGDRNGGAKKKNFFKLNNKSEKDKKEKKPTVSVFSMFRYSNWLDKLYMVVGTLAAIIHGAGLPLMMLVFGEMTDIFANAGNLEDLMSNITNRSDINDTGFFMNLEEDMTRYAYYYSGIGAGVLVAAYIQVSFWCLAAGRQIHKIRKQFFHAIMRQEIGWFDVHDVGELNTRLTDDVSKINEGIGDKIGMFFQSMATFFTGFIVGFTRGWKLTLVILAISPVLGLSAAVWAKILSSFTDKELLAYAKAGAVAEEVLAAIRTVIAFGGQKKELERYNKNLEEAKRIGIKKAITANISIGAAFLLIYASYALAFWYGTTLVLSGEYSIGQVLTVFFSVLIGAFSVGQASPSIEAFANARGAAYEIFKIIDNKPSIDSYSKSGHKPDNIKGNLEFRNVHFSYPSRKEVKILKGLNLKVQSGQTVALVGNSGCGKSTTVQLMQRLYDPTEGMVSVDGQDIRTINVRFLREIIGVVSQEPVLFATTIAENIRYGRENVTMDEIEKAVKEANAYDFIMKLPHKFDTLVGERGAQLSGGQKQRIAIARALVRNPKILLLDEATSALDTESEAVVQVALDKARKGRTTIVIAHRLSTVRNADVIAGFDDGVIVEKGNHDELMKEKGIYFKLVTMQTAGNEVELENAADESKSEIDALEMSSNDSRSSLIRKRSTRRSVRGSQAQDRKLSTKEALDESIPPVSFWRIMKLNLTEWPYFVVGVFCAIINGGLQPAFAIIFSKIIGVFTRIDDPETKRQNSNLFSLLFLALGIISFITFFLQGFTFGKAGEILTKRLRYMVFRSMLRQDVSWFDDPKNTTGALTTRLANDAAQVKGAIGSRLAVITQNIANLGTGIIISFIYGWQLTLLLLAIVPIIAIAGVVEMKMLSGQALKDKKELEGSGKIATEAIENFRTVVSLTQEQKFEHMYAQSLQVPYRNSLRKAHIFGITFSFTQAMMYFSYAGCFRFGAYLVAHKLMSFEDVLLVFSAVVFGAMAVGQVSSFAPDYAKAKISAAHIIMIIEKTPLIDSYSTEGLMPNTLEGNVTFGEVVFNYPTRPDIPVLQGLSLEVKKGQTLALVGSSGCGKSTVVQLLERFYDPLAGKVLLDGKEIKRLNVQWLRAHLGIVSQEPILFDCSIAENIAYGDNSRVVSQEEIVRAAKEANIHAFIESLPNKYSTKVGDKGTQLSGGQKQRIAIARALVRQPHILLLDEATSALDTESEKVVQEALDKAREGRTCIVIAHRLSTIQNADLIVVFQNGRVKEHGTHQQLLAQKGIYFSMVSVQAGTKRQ

SMILES: O=C(Nc1ccc(CCN2CCc3ccccc3C2)cc1)c1nn(-c2ccc(Cl)cc2)c(=O)c2ccccc12
IC50 (K562): > 100 µM
IC50 (A549): > 100 µM
IC50 (MDCK): > 100 µM
IC50 [1]: > 100 µM
IC50 (K562/A02): > 100 µM

SMILES: COc1cccc2c1C(=O)c1c(O)c3c(c(O)c1C2=O)C[C@@](O)(C(=O)CO)C[C@@H]3O[C@H]1C[C@H](N)[C@H](O)[C@H](C)O1 [DOXORUBICIN HYDROCHLORIDE]
IC50 (K562): 0.92 µM
IC50 (K562/A02): 78.3 µM

SMILES: C#Cc1cccc(Nc2ncnc3cc(OCCOC)c(OCCOC)cc23)c1 [ERLOTINIB]
EC50 [2]: > 4.93 µM
EC50 [3]: 0.17 µM

SMILES: COc1ccc(CCN(C)CCCC(C#N)(c2ccc(OC)c(OC)c2)C(C)C)cc1OC (stereo not given)
inhibition (INH) [4]: Active
IC50 (K562/A02): 39.9 µM

SMILES: COc1cc2c(cc1OC)CN(CCc1ccc(NC(=O)c3cc(OC)c(OC)cc3NC(=O)c3cnc4ccccc4c3)cc1)CC2
IC50 (MDCK): > 100 µM
IC50 [1]: > 100 µM

SMILES: COc1ccc2c3c([nH]c2c1)[C@H](CC(C)C)N1C(=O)[C@H](CCC(=O)OC(C)(C)C)NC(=O)[C@@H]1C3
IC50 (MDCK): 93.3 µM
IC50 [1]: > 100 µM

SMILES: CC(=O)O[C@H]1C(=O)[C@@]2(C)[C@H]([C@H](OC(=O)c3ccccc3)[C@]3(O)C[C@H](OC(=O)[C@H](O)[C@@H](NC(=O)c4ccccc4)c4ccccc4)C(C)=C1C3(C)C)[C@]1(OC(C)=O)CO[C@@H]1C[C@@H]2O [PACLITAXEL]
Papp B→A at 3 h [5]: 19.4 ×10⁻⁶ cm/s
Vd/F [6]: 16 L
Tmax [7]: 2.51 h
Activity (Caco-2 [8]): < 20%
Cmax [9]: 652 ng/mL
Papp A→B at 0.5 h [10]: 0.09 ×10⁻⁶ cm/s
AUC(0-t) [11]: 3130 ng·h/mL
Papp A→B at 1 h [12]: 1.02 ×10⁻⁶ cm/s
Papp B→A at 2 h [13]: 11.1 ×10⁻⁶ cm/s
Tmax [14]: 2 h
Papp B→A at 1.5 h [15]: 5.85 ×10⁻⁶ cm/s
Papp A→B at 1.5 h [16]: 1.98 ×10⁻⁶ cm/s
Cmax [17]: 112 ng/mL
half-life (in vivo): 1.68 h
Papp B→A at 1 h [18]: 2.5 ×10⁻⁶ cm/s
Papp B→A at 0.5 h [19]: 1.29 ×10⁻⁶ cm/s
Papp A→B at 2 h [20]: 2.42 ×10⁻⁶ cm/s
Papp A→B at 3 h [21]: 2.69 ×10⁻⁶ cm/s
F [22]: 100%
bioavailability [23]: 45.1%
CL/F [24]: 103 mL/min

SMILES: COc1cc2ncnc(Nc3ccc(F)c(Cl)c3)c2cc1OCCCN1CCOCC1 [GEFITINIB]
inhibition (INH) [4]: Active
EC50 [2]: > 1 µM

SMILES: CS(=O)(=O)CCNCc1ccc(-c2ccc3ncnc(Nc4ccc(OCc5cccc(F)c5)c(Cl)c4)c3c2)o1 [LAPATINIB]
EC50 [2]: > 2.79 µM
EC50 [3]: 3.2 µM

Further lines, with some results ahead:

IC50 (A549): 73.4 µM
SMILES: O=C(NCCCN1CCOCC1)c1nn(-c2ccc(Cl)cc2)c(=O)c2ccccc12
IC50 (K562): > 100 µM
IC50 (MDCK): > 100 µM
IC50 [1]: > 100 µM
IC50 (K562/A02): > 100 µM

IC50 (A549): > 100 µM
SMILES: O=C(Nc1ccc(N2CCOCC2)cc1)c1nn(-c2ccc(Cl)cc2)c(=O)c2ccccc12
IC50 (K562): > 100 µM
IC50 (MDCK): > 100 µM
IC50 [1]: > 100 µM
IC50 (K562/A02): > 100 µM

IC50 (A549): > 100 µM
SMILES: O=C(NCCN1CCOCC1)c1nn(-c2ccc(Cl)cc2)c(=O)c2ccccc12
IC50 (K562): > 100 µM
IC50 (MDCK): > 100 µM
IC50 [1]: > 100 µM
IC50 (K562/A02): > 100 µM

IC50 (A549): 69.1 µM
SMILES: O=C(NCCc1cccc(F)c1)c1nn(-c2ccc(Cl)cc2)c(=O)c2ccccc12
IC50 (K562): > 100 µM
IC50 (MDCK): > 100 µM
IC50 [1]: > 100 µM
IC50 (K562/A02): > 100 µM

IC50 (A549): > 100 µM
SMILES: O=C(NCCc1cccc(Cl)c1)c1nn(-c2ccc(Cl)cc2)c(=O)c2ccccc12
IC50 (K562): > 100 µM
IC50 (MDCK): > 100 µM
IC50 [1]: 51.4 µM
IC50 (K562/A02): > 100 µM

IC50 (A549): 43.5 µM
SMILES: O=C(NCCc1ccccc1)c1nn(-c2ccc(Cl)cc2)c(=O)c2ccccc12
IC50 (K562): > 100 µM
IC50 (MDCK): > 100 µM
IC50 [1]: 97.3 µM
IC50 (K562/A02): > 100 µM

inhibition (INH) [4]: Active
inhibition (INH) [27]: Active
SMILES: O=C(Nc1ccc(CCN2CCOCC2)cc1)c1nn(-c2ccc(Cl)cc2)c(=O)c2ccccc12
EC50 [25]: 0.0982 µM
Activity (Caco-2 [26]): < 20%
IC50 (K562): 72.8 µM
IC50 (MDCK): 87.7 µM
IC50 [1]: 81.2 µM
inhibition (MDCK-II-BCRP): Active
IC50 (K562/A02): 43.3 µM
IC50 [28]: 7232 µM

IC50 (A549): > 100 µM
SMILES: COc1ccc(CCNC(=O)c2nn(-c3ccc(Cl)cc3)c(=O)c3ccccc23)cc1OC
IC50 (K562): > 100 µM
IC50 (MDCK): > 100 µM
IC50 [1]: > 100 µM
IC50 (K562/A02): > 100 µM
